Data from patent publication US7087620B2, “Liquid pharmaceutical formulations containing 3,7-diazabicyclo[3,3,1]nonane compounds and methods of treatment relating to anti-arrhythmic events” (Solvay Pharmaceuticals GmbH, priority 2002, dated 2006).
“Also recorded” adds a separate entry of the source.

Assays:
Type in all cases: in vivo, human
healthy male subjects = assay: Two step infusion study in healthy male subjects: pharmacodynamics (12-lead ECG: QT, QTc, heart rate); conditions: for Pharmacodynamic action on QT, QTc interval and heart rate: over two hours post dosing
Procedure: A double-blind, placebo-controlled, randomized, single iv dose, two periods cross-over study to assess the safety, tolerability, pharmacodynamics and pharmacokinetics during and following a two step infusion of Tedisamil in healthy male subjects was performed with the following drug and dosages: Tedisamil dihydrochloride/0.4 mg/kg body weight infused over 30 minutes.
• 1. To assess safety and tolerability of tedisamil in healthy male subjects during and following a two step infusion scheme (0.4 mg/kg body weight infused over 30 minutes, with half of the dose infused over 10 minutes and half of the dose infused over the remaining 20 minutes). • 2. […] Methodology:
This was a single center, double-blind, placebo-controlled, randomized, single iv dose, two period cross-over study. Subjects were randomly allocated to either treatment sequence tedisamil-placebo or placebo-tedisamil. Number of patients (planned, screened, randomized and analyzed): Planned: 18, Screened: 27, Randomized: 18, Analyzed: 18 in PK/PD and safety analyses.
Subjects were included in the study only if they were healthy males, their age was in the range of 18-40 years (both inclusive), their body mass index (BMI) was between 18 kg/m^2 and 28 kg/m^2. Test product, dose and mode of administration: Tedisamil dihydrochloride; Strength: 2 mg/ml; Dose: 0.4 mg/kg body weight infused over 30 minutes, with half of the dose infused over 10 minutes and half of the dose infused over the remaining 20 minutes. Route: intravenous.
12-lead ECG.s were taken at several time points to explore the pharmacodynamic effects of Tedisamil (effects on QT and QTc) during and following infusion. The maximum value and maximum increase were derived for QTc and QT and the minimum value and maximum decrease were derived for heart rate. The AUC(0-24) and the maximum for the placebo-corrected QTc and QT and the AUC(0-24) and the minimum for the placebo-corrected heart rate were also calculated.
Descriptive statistics were performed for the ECG intervals QT, QTc, RR, PR, QRS and for heart rate by treatment (tedisamil, placebo and “tedisamil−placebo”) and time point. Individual and mean (arithmetic mean±1 SD) time profiles for ECG intervals and heart rate were graphically presented for both treatments.
Derived parameters, i.e. maximum value and maximum increase for QTc and QT, and minimum value and maximum decrease for heart rate were submitted to separate analyses of (co)variance (covariance only for maximum and minimum values) including subject, treatment, sequence, and period as class effects (and the individual pre-dose value as covariate). Point estimates and 95% confidence intervals were constructed for the difference “tedisamil−placebo” using the residual variance. Model assumptions were checked by visual inspection of residual plots. Additionally, descriptive statistics were calculated for the derived parameters per treatment and for the difference “tedisamil−placebo”.
Descriptive statistics for the placebo corrected AUC(0-24) of QTc, QT and heart rate and the placebo corrected maximum effect (maximum for QTc and QT and minimum for heart rate) were calculated. In addition, 95% confidence intervals were derived based on normally distributed outcomes.

AF/AFL patients = assay: Single infusion over 10 minutes in AF/AFL patients; conditions: intravenous doses of up to 0.24 mg/kg TEDI base, infused over 10 minutes
[1] = system: patients with atrial fibrillation or flutter; assay: Safety and tolerability of intravenous tedisamil in patients with atrial fibrillation or flutter
Procedure: The safety objective was: To determine the safety and tolerability of tedisamil versus placebo.
Safety was monitored regarding: Physical examination, ECG, 24-hour Holter monitoring, vital signs, laboratory evaluations and adverse events.
The intent-to-treat patient sample was analyzed for efficacy. All tests were two-sided and a p-value <0.05 was considered significant. Differences in percentages of conversion were compared among the treatment groups using the Pearson chi-square statistic. Safety analysis was conducted on the safety patient sample. Numbers and percentages of patients with adverse events were calculated for each treatment group, using MedDRA preferred terms and body systems. Descriptive statistics were summarized by treatment group for changes from baseline in QT, heart rate and blood pressure.
Physical examination, ECG, 24-hour Holter monitoring, vital signs, laboratory evaluations and adverse events.

[2] = 0.4 mg/kg tedisamil dihydrochloride iv, two step infusion over 30 minutes
[3] = difference tedisamil−placebo, analysis of covariance, 0.4 mg/kg iv two step infusion
[4] = difference tedisamil−placebo, analysis of variance, 0.4 mg/kg iv two step infusion
[5] = placebo-corrected, 0.4 mg/kg iv two step infusion
[6] = two-step infusion regimen, 0.4 and 0.6 mg/kg

## C1CCC2(C1)C1CN(CC3CC3)CC2CN(CC2CC2)C1 [Tedisamil, N,N′-dicyclopropylmethyl-9,9-tetramethylene-3,7-diazabicyclo[3,3,1]nonane]
Healthy male subjects; [2]
  Heart Rate Max. Decrease, Arith. Mean (SD): 10.6 (3.8) bpm
  Heart Rate Minimum, Arith. Mean (SD): 49.2 (7.0) bpm
  QT Interval Max. Increase, Arith. Mean (SD): 76.0 (22.4) ms
  QT Interval Maximum, Arith. Mean (SD): 474.2 (39.2) ms
  QTc Interval Max. Increase, Arith. Mean (SD): 61.1 (30.3) ms
  QTc Interval Maximum, Arith. Mean (SD): 455.9 (30.0) ms
Healthy male subjects; [3]
  Heart Rate Minimum, Estimate (Ted-Pla): −4.01 bpm
  QT Interval Maximum, Estimate (Ted-Pla): 58.4 ms
  QTc Interval Maximum, Estimate (Ted-Pla): 34.0 ms
Healthy male subjects; [4]
  Heart Rate Max. Decrease, Estimate (Ted-Pla): 4.22 bpm
  QT Interval Max. Increase, Estimate (Ted-Pla): 57.9 ms
  QTc Interval Max. Increase, Estimate (Ted-Pla): 34.1 ms
Healthy male subjects; two step infusion
  Pharmacodynamic action on QT, QTc interval and heart rate: a marked prolongation of QT and QTc interval and a distinct decrease in heart rate; also recorded: strong effect on QT, QTc and heart in the first two hours post dosing
Healthy male subjects; two step infusion, listed as TEDI
  Pharmacodynamic action on QT, QTc interval and heart rate: a prolongation of QT and QTc intervals and a distinct decrease in heart rate
Healthy male subjects; [5]
  Placebo-corrected Heart Rate AUC(0-24), Mean (SD): −13.5 (11.5) bpm
  Placebo-corrected Heart Rate Minimum, Mean (SD): −15.9 (6.0) bpm
  Placebo-corrected QT Interval AUC(0-24), Mean (SD): 112.9 (382.9) ms
  Placebo-corrected QT Interval Maximum, Mean (SD): 74.7 (36.7) ms
  Placebo-corrected QTc Interval AUC(0-24), Mean (SD): 28.5 (170.5) ms
  Placebo-corrected QTc Interval Maximum, Mean (SD): 63.9 (26.9) ms
Healthy male subjects; placebo-corrected, two step infusion
  Effect on AUC(0-24) values of QT, QTc and heart rate: A significant effect of Tedisamil could not be found
AF/AFL patients
  Conversions in AF/AFL patients: did not produce any conversions
[1]; 30 min regimen, by gender
  TdP (Torsade de Point): Almost all observed TdP (Torsade de Point) in 30 min regimen were in female patients
[1]; first study (Phase II)
  Gender difference in safety issues: male patients show less safety issues than female patients
[1]; [6]
  DC cardioversion required for treatment of VTs: no patient required DC cardioversion for treatment of VTs
  Sustained polymorphic VT: no sustained polymorphic VT were observed
  Tolerability in patients: well tolerated
